# Measured values: PMC4481955, “Sensitive, Fast, and Specific Immunoassays for Methyltestosterone Detection” (Sensors (Basel, Switzerland), 2015)
# Experiments:
# anti-MT mAb = assay: indirect competitive ELISA (icELISA) with anti-MT monoclonal antibody; type: binding, mouse; conditions: for CR (%): CR = (IC50 of MT/IC50 of competition analogue) x 100%
# Protocol: (§1) Checkerboard titration was used for the determination of optimum coating antigen and antibody concentrations in icELISA. A 96-well microplate was coated with 100 μL/well MT-CMO-OVA (0.1 μg/mL, in 0.05 M CBS, pH 9.6) and incubated overnight at 4 °C. The wells were washed three times with washing buffer (0.01 M, PBS, containing 0.2% Tween 20) to remove free coating antigen and blocked with 220 μL blocking buffer (0.05 M, 0.2% Gelatin in CBS) at 37 °C for 2 h.
# After washing, 50 μL of different concentrations of standard and 50 μL of antibody were added to wells and incubated at 37 °C for 30 min. Following another wash to remove unbound antibody and standards, 100 μL of 1:3000 diluted HRP-labelled goat anti-mouse IgG was added to each well and incubated for 30 min at 37 °C. After washing three times, 100 μL of substrate was added and incubated for 15 min at 37 °C. The enzymatic reaction was stopped with 50 μL sulfuric acid (2 M) per well. A microplate reader was used to determine the absorbance of each well at 450 nm.
# Three immunoassay parameters (methanol content, ionic strength and pH of the solvent) were optimized to improve both the stability and sensitivity of icELISA. The criteria used to evaluate immunoassay performance were half inhibition concentration (IC50), maximum absorbance (Amax) and Amax/IC50. To optimize the methanol content in the solvent, PBS was mixed with different contents of methanol (0%, 5%, 10% and 20%). For ionic strength optimization, different concentrations of PBS (5, 10, 20, and 40 mM) were used. Finally, for solvent pH optimization, PBS was adjusted to different pH values (4.7–9.6).
# In this study, mAb specificity was investigated by cross-reactivity (CR). Competition analogues (testosterone, nor-testosterone, estradiol, estriol, progesterone, epitestosterone, dihydrotestosterone and dexamethasone) were prepared in methanol at 1 mg/mL. A series of standard solutions (0, 1, 2, 5, 10, 20, 50 and 100 ng/mL) were diluted with optimized PBS and subjected to icELISA. CR values were calculated with the following formula: CR (%) = (IC50 of MT/IC50 of competition analogue) × 100%
# [1] = test system: antisera (mouse No. 16), anti-MT activity; assay: icELISA screening of mouse antiserum for anti-MT activity; type: binding; conditions: mouse No. 16, after two subsequent injections, MT in PBS
# Protocol: Female BALB/c mice (8–10 weeks old) were injected subcutaneously at multiple sites with the immunogen MT-CMO-BSA (100 μg in 0.1 mL saline) emulsified with an equal volume of Freund’s complete adjuvant. For subsequent boosters administered at one-month intervals, Freund’s incomplete adjuvant was used. Antisera were collected following the third booster immunization and screened for anti-MT activity by icELISA [27]. The mouse with the highest anti-MT activity was administered the immunogen (20 μg in 0.2 mL saline) by intraperitoneal injection and sacrificed three days later for cell fusion.
# as §1
# After washing, 50 μL of different concentrations of standard and 50 μL of antibody were added to wells and incubated at 37 °C for 30 min. […] A microplate reader was used to determine the absorbance of each well at 450 nm.
# [2] = optimized icELISA, PBS 10 mM, pH 7.4
Compound,CR (%) (anti-MT mAb),IC50 (anti-MT mAb; [2]) [ng/mL],other results
C[C@@H]1C[C@H]2[C@@H]3CCC4=CC(=O)C=C[C@]4(C)[C@@]3(F)[C@@H](O)C[C@]2(C)[C@@]1(O)C(=O)CO [Dexamethasone],<0.26,>100,–
C[C@]12CCC(=O)C[C@@H]1CC[C@@H]1[C@@H]2CC[C@]2(C)[C@@H](O)CC[C@@H]12 [Dihydrotestosterone],<0.26,>100,–
C[C@]12CC[C@H]3[C@@H](CCC4=CC(=O)CC[C@@]43C)[C@@H]1CC[C@H]2O [Epitestosterone],<0.26,>100,–
C[C@]12CC[C@@H]3c4ccc(O)cc4CC[C@H]3[C@@H]1CC[C@@H]2O [Estradiol],0.52,50,–
C[C@]12CC[C@@H]3c4ccc(O)cc4CC[C@H]3[C@@H]1C[C@@H](O)[C@@H]2O [Estriol],<0.26,>100,–
C[C@]12CCC(=O)C=C1CC[C@@H]1[C@@H]2CC[C@@]2(C)[C@H]1CC[C@]2(C)O [Methyltestosterone],100,0.26,"IC50 (anti-MT mAb; ionic strength (PBS) 5 mM): 0.68 ± 0.017 ng/mL; IC50 (anti-MT mAb; ionic strength (PBS) 10 mM): 0.398 ± 0.024 ng/mL; IC50 (anti-MT mAb; ionic strength (PBS) 20 mM): 0.565 ± 0.024 ng/mL; IC50 (anti-MT mAb; ionic strength (PBS) 40 mM): 0.504 ± 0.092 ng/mL; IC50 (anti-MT mAb; methanol content 0%): 0.418 ± 0.02 ng/mL; IC50 (anti-MT mAb; methanol content 5%): 0.567 ± 0.023 ng/mL; IC50 (anti-MT mAb; methanol content 10%): 0.418 ± 0.05 ng/mL; IC50 (anti-MT mAb; methanol content 20%): 0.626 ± 0.009 ng/mL; IC50 (anti-MT mAb; pH 4.7): 0.456 ng/mL; IC50 (anti-MT mAb; pH 6.0): 0.723 ± 0.038 ng/mL; IC50 (anti-MT mAb; pH 7.4): 0.455 ng/mL; IC50 (anti-MT mAb; pH 8.6): 0.577 ± 0.026 ng/mL; IC50 (anti-MT mAb; pH 9.6): 0.714 ± 0.007 ng/mL; IC50 of purified mAb (anti-MT mAb; purified mAb from hybridoma 1E12, before optimization): 0.4 ng/mL; IC50 of antiserum [1]: approximately 3 ng/mL"
C[C@]12CC[C@H]3[C@@H](CCC4=CC(=O)CC[C@@H]43)[C@@H]1CC[C@@H]2O [Nor-testosterone],1.04,25,–
CC(=O)[C@H]1CC[C@H]2[C@@H]3CCC4=CC(=O)CC[C@]4(C)[C@H]3CC[C@]12C [Progesterone],<0.26,>100,–
C[C@]12CC[C@H]3[C@@H](CCC4=CC(=O)CC[C@@]43C)[C@@H]1CC[C@@H]2O [Testosterone],–,12,–
